Reference: the supplement of paper PMC13380429

What was measured:
Settings in all cases: 72 h
[1] = test system: Calu-3; assay: cell viability relative to DMSO; higher = less toxic
[2] = test system: Vero E6; assay: as above
[3] = test system: HepG2; assay: as above
[4] = test system: Caco-2; assay: as above
[5] = test system: U2OS; assay: as above
[6] = test system: Calu-3; assay: relative viability EC50 (midpoint between 100% and the lowest measured viability); higher = less toxic
[7] = test system: Vero E6; assay: as above
[8] = test system: HepG2; assay: as above
[9] = test system: Caco-2; assay: as above
[10] = test system: U2OS; assay: as above
[11] = test system: Calu-3; assay: drug sensitivity score (DSS) for viability; higher = more toxic; extreme values may be limits of the assay
[12] = test system: Vero E6; assay: as above
[13] = test system: HepG2; assay: as above
[14] = test system: Caco-2; assay: as above
[15] = test system: U2OS; assay: as above

SMILES	cell viability ([1]; 1 nM)	cell viability ([1]; 10 nM)	cell viability ([1]; 100 nM)	cell viability ([1]; 1000 nM)	cell viability ([1]; 10000 nM)	cell viability ([2]; 1 nM)	cell viability ([2]; 10 nM)	cell viability ([2]; 100 nM)	cell viability ([2]; 1000 nM)	cell viability ([2]; 10000 nM)	cell viability ([3]; 1 nM)	cell viability ([3]; 10 nM)	cell viability ([3]; 100 nM)	cell viability ([3]; 1000 nM)	cell viability ([3]; 10000 nM)	cell viability ([4]; 1 nM)	cell viability ([4]; 10 nM)	cell viability ([4]; 100 nM)	cell viability ([4]; 1000 nM)	cell viability ([4]; 10000 nM)	cell viability ([5]; 1 nM)	cell viability ([5]; 10 nM)	cell viability ([5]; 100 nM)	cell viability ([5]; 1000 nM)	cell viability ([5]; 10000 nM)	relative viability EC50 [6]	relative viability EC50 [7]	relative viability EC50 [8]	relative viability EC50 [9]	relative viability EC50 [10]	drug sensitivity score [11]	drug sensitivity score [12]	drug sensitivity score [13]	drug sensitivity score [14]	drug sensitivity score [15]
NC(=O)N1C(=O)/C(=C(\O)c2cccs2)c2cc(Cl)ccc21 [tenidap]	109%	97%	85.4%	108%	99.9%	102%	103%	94.6%	93.1%	99%	98.4%	110%	98.8%	106%	99.9%	98.3%	94.6%	97.1%	94%	91.6%	99.6%	98.3%	93.3%	102%	99%	> 10 µM	> 10 µM	> 10 µM	> 10 µM	> 10 µM	0	0	0	0	0
O=C(O)C1CSCN1 (stereo not given) [timonacic]	115%	94.9%	94.6%	109%	104%	97%	99.6%	97.6%	98.9%	94.1%	94.4%	98.7%	88.1%	98.4%	97.9%	101%	102%	96.4%	88.3%	102%	103%	98.2%	99.5%	98.8%	102%	> 10 µM	> 10 µM	> 10 µM	> 10 µM	> 10 µM	0	0	0	0	0
CCOC(=O)NNc1nncc2ccccc12 [todralazine]	84.4%	109%	101%	110%	103%	101%	88.3%	97.3%	91.5%	99.4%	79.3%	97.3%	125%	112%	97.3%	90.4%	111%	84.2%	94.4%	117%	98.6%	100%	97.1%	102%	105%	> 10 µM	> 10 µM	> 10 µM	> 10 µM	> 10 µM	0	0	0	0	0
CC[C@@]1(O)C(=O)OCc2c1cc1n(c2=O)Cc2cc3c(CN(C)C)c(O)ccc3nc2-1 [topotecan]	111%	102%	77.3%	47.2%	20.1%	102%	97.3%	95.1%	65.1%	39.8%	110%	70.3%	48.6%	18.8%	1.4%	97.7%	92.8%	83.3%	58.6%	16.2%	101%	107%	97.9%	60.6%	5.9%	0.38 µM	0.756 µM	0.0757 µM	0.748 µM	1.16 µM	12.6	7.5	23.6	10.4	10.2
